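Method: 48-hour compound exposure of cells in 96-well plates, five concentrations, linear interpolation of endpoints. The concentration for 50% growth inhibition is given as GI50.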 Activity calls are given as the source filed them. Rule as the data show it: active = GI50 up to about 1.1 µM and inactive = higher.
Tests used:
Experiment in all cases: DTP human tumour cell line panel, 48 h
HCC 2998 = tested on: HCC 2998
HT-29 = tested on: HT-29
UO-31 = tested on: UO-31
SK-OV-3 = tested on: SK-OV-3
A549 = tested on: A549
DU-145 = tested on: DU-145
TK-10 = tested on: TK-10
OVCAR-5 = tested on: OVCAR-5
IGROV-1 = tested on: IGROV-1
HOP-92 = tested on: HOP-92
CAKI-1 = tested on: CAKI-1
SNB-75 = tested on: SNB-75
OVCAR-4 = tested on: OVCAR-4
NCI-H460 = tested on: NCI-H460
OVCAR-3 = tested on: OVCAR-3
M14 = tested on: M14
NCI-H226 = tested on: NCI-H226
HOP-62 = tested on: HOP-62
HL-60 = tested on: HL-60
SK-MEL-28 = tested on: SK-MEL-28
786-0 = tested on: 786-0
HCT-15 = tested on: HCT-15
ACHN = tested on: ACHN
NCI/ADR-RES = tested on: NCI/ADR-RES
SK-MEL-2 = tested on: SK-MEL-2
SF-295 = tested on: SF-295
EKVX = tested on: EKVX
LOX IMVI = tested on: LOX IMVI
U-251 = tested on: U-251
BT-549 = tested on: BT-549
T47D = tested on: T47D
SK-MEL-5 = tested on: SK-MEL-5
COLO 205 = tested on: COLO 205
MCF7 = tested on: MCF7
NCI-H23 = tested on: NCI-H23
SN12C = tested on: SN12C
PC-3 = tested on: PC-3
MDA-MB-231 = tested on: MDA-MB-231
KM12 = tested on: KM12
SW-620 = tested on: SW-620
OVCAR-8 = tested on: OVCAR-8
MDA-N = tested on: MDA-N
MOLT-4 = tested on: MOLT-4
MDA-MB-435 = tested on: MDA-MB-435
UACC-257 = tested on: UACC-257
SF-539 = tested on: SF-539
HCT-116 = tested on: HCT-116
SNB-19 = tested on: SNB-19
K562 = tested on: K562
RPMI-8226 = tested on: RPMI-8226
CCRF-CEM = tested on: CCRF-CEM
RXF 393 = tested on: RXF 393
SR = tested on: SR
UACC-62 = tested on: UACC-62
A498 = tested on: A498
SF-268 = tested on: SF-268
Malme-3M = tested on: Malme-3M
NCI-H522 = tested on: NCI-H522

Measured: GI50

O=C1NC(=O)/C(=C\c2ccncc2)N1
> 100 µM: HCT-15
inactive: HCC 2998 > 100 µM | HT-29 > 100 µM | UO-31 > 100 µM | SK-OV-3 > 100 µM | A549 > 100 µM | DU-145 > 100 µM | TK-10 > 100 µM | OVCAR-5 > 100 µM | IGROV-1 > 100 µM | HOP-92 > 100 µM | CAKI-1 > 100 µM | SNB-75 > 100 µM | OVCAR-4 > 100 µM | NCI-H460 > 100 µM | OVCAR-3 > 100 µM | M14 > 100 µM | NCI-H226 > 100 µM | HOP-62 > 100 µM | HL-60 > 10 µM | SK-MEL-28 > 100 µM | 786-0 > 100 µM | ACHN > 100 µM | NCI/ADR-RES > 100 µM | SK-MEL-2 > 100 µM | SF-295 > 100 µM | EKVX > 100 µM | LOX IMVI > 100 µM | U-251 > 100 µM | BT-549 > 100 µM | T47D > 100 µM | SK-MEL-5 > 100 µM | COLO 205 > 100 µM | MCF7 > 100 µM | NCI-H23 > 100 µM | SN12C > 100 µM | PC-3 > 100 µM | MDA-MB-231 > 100 µM | KM12 > 100 µM | SW-620 > 100 µM | OVCAR-8 > 100 µM | MDA-N > 100 µM | MOLT-4 > 100 µM | MDA-MB-435 > 100 µM | UACC-257 > 100 µM | SF-539 > 100 µM | HCT-116 > 100 µM | SNB-19 > 100 µM

COc1ccc2nc3n(c2c1)C(c1c(Cl)cccc1Cl)SC3 (configuration not stated)
> 100 µM: HCT-15
inactive: HCC 2998 > 100 µM | UO-31 > 100 µM | SK-OV-3 > 100 µM | A549 > 100 µM | K562 > 100 µM | DU-145 > 100 µM | TK-10 > 100 µM | RPMI-8226 > 100 µM | OVCAR-5 > 100 µM | IGROV-1 > 100 µM | HOP-92 > 100 µM | CAKI-1 > 100 µM | SNB-75 > 100 µM | OVCAR-4 24.7 µM | NCI-H460 > 100 µM | OVCAR-3 > 100 µM | CCRF-CEM > 100 µM | M14 > 100 µM | NCI-H226 > 100 µM | HOP-62 59.7 µM | HL-60 > 100 µM | SK-MEL-28 > 100 µM | 786-0 > 100 µM | ACHN > 100 µM | NCI/ADR-RES > 100 µM | RXF 393 > 100 µM | SK-MEL-2 > 100 µM | SF-295 > 100 µM | EKVX > 100 µM | LOX IMVI > 100 µM | U-251 > 100 µM | BT-549 > 100 µM | T47D > 100 µM | SK-MEL-5 > 100 µM | COLO 205 > 100 µM | SR > 100 µM | MCF7 > 100 µM | UACC-62 > 100 µM | NCI-H23 > 100 µM | SN12C > 100 µM | PC-3 > 100 µM | KM12 > 100 µM | SW-620 > 100 µM | A498 > 100 µM | OVCAR-8 > 100 µM | MDA-N 87.9 µM | MOLT-4 > 100 µM | MDA-MB-435 > 100 µM | UACC-257 > 100 µM | HCT-116 > 100 µM | SNB-19 > 100 µM

CN(C)CCCNc1ncnc2c1ncn2C1OC(CO)C(O)C1O (configuration not stated)
> 100 µM: HCT-15
inactive: HCC 2998 > 100 µM | HT-29 > 100 µM | UO-31 > 100 µM | SK-OV-3 > 100 µM | A549 > 100 µM | K562 > 100 µM | DU-145 > 100 µM | TK-10 > 100 µM | RPMI-8226 > 100 µM | OVCAR-5 > 100 µM | IGROV-1 93.5 µM | HOP-92 > 100 µM | CAKI-1 > 100 µM | OVCAR-4 > 100 µM | NCI-H460 > 100 µM | OVCAR-3 > 100 µM | CCRF-CEM > 100 µM | M14 > 100 µM | NCI-H226 > 100 µM | HOP-62 > 100 µM | HL-60 > 100 µM | SK-MEL-28 > 100 µM | 786-0 > 100 µM | ACHN > 100 µM | NCI/ADR-RES > 100 µM | RXF 393 > 100 µM | SK-MEL-2 > 100 µM | SF-295 > 100 µM | EKVX > 100 µM | LOX IMVI > 100 µM | U-251 > 100 µM | BT-549 92.7 µM | T47D > 100 µM | SK-MEL-5 > 100 µM | COLO 205 > 100 µM | SR > 100 µM | MCF7 > 100 µM | UACC-62 > 100 µM | SF-268 > 100 µM | NCI-H23 > 100 µM | SN12C > 100 µM | PC-3 > 100 µM | MDA-MB-231 > 100 µM | KM12 > 100 µM | SW-620 > 100 µM | A498 > 100 µM | OVCAR-8 > 100 µM | MDA-N > 100 µM | MOLT-4 54.8 µM | MDA-MB-435 > 100 µM | Malme-3M > 100 µM | UACC-257 > 100 µM | SF-539 > 100 µM | NCI-H522 > 100 µM | HCT-116 > 100 µM | SNB-19 > 100 µM
